Results from patent US8685974B2 (Bayer CropScience AG, priority 2009, dated 2014).
Read-outs that look alike come from different tables or passages of the source. Marks after values point to notes of the source that are not given here.

| SMILES | log p (pH 2.3) | log p (pH 2.7) | also measured |
| --- | --- | --- | --- |
| CC(C)Cn1ncc(-c2cc[n+]([O-])c(NCc3ccccc3)c2)c1-c1ccc(Cl)s1 [Example 75] | 3.48^[a] |  |  |
| CC(C)Cn1cc(-c2cc[n+]([O-])c(N)c2)c(-c2ccc(Cl)s2)n1 [Example 77] | 2.39^[a] |  | logP value of the minor isomer (in parenthesis in column Isomer ratio [d]) (pH 2.3): (2.21) |
| NNc1nccc(-c2c[nH]nc2-c2ccc(Cl)s2)n1 [Example 78] | 2.26^[a] |  |  |
| CN(C)c1nccc(-c2c[nH]nc2-c2ccc(Cl)s2)n1 [Example 79] | 1.69^[a] |  |  |
| Clc1nccc(-c2c[nH]nc2-c2ccc(Cl)s2)n1 [Example 81] | 2.64^[a] |  |  |
| C#CCNc1cc(-c2cnn(CC(C)C)c2-c2ccc(Cl)s2)cc[n+]1[O-] [Example 83] | 2.7^[a] |  |  |
| C#CCNc1cc(-c2cn(CC(C)C)nc2-c2ccc(Cl)s2)cc[n+]1[O-] [Example 84] | 2.92^[a] |  |  |
| N#Cc1[nH]nc(-c2ccc(Cl)s2)c1-c1ccncc1 [Example 85] |  | 1.53^[b] |  |
| CCOC(=O)n1cc(-c2ccncc2)c(-c2ccc(Cl)s2)n1 [Example 87] |  | 1.97^[b] |  |
| CS(=O)(=O)n1cc(-c2ccncc2)c(-c2ccc(Cl)s2)n1 [Example 88] |  | 1.78^[b] |  |
| CC(C)NC(=O)n1cc(-c2ccncc2)c(-c2ccc(Cl)s2)n1 [Example 89] |  | 2.26^[b] |  |
| Clc1ccc(-c2n[nH]cc2-c2ccnc(NCc3ccccc3)n2)s1 [Example 90] | 2.37^[a] |  |  |
| CC(CN(C)C)Cn1cc(-c2ccnc(Cl)c2)c(-c2ccc(Cl)s2)n1 (centres unmarked) [Example 91] | 1.84^[a] |  | logP value of the minor isomer (in parenthesis in column Isomer ratio [d]) (pH 2.3): (1.74) |
| CC(C)Cn1cc(-c2ccnc(NCc3ccccc3)n2)c(-c2ccc(Cl)s2)n1 [Example 93] | 4.31^[a] |  |  |
| CC(C)Cn1cc(-c2ccnc(N(Cc3ccccc3)C(=O)C(C)C)n2)c(-c2ccc(Cl)s2)n1 [Example 94] | 5.88^[a] |  |  |
| CC(C)Cn1ncc(-c2ccnc(NCc3ccccc3)n2)c1-c1ccc(Cl)s1 [Example 96] | 3.96^[a] |  |  |
| CCC(C)n1cc(-c2ccnc(C(=O)NC(C)C)c2)c(-c2ccc(Cl)s2)n1 (centres unmarked) [Example 99] |  | 4.82^[b] |  |
| CCC(C)n1cc(-c2ccnc(Br)c2)c(-c2ccc(Cl)s2)n1 (centres unmarked) [Example 100] |  | 5.03^[b] |  |
| COc1ccc(Cn2nc(-c3ccc(Cl)s3)c(-c3ccncc3)c2[Si](C)(C)C)cc1 [Example 102] |  | 4.84^[b] |  |
| COc1ccc(Cn2nc(-c3ccc(Cl)s3)c(-c3ccncc3)c2SC)cc1 [Example 103] |  | 3.78^[b] |  |
| CCC(C)n1cc(-c2ccnc(C#CC3CC3)c2)c(-c2ccc(Cl)s2)n1 (centres unmarked) [Example 111] |  | 4.56^[b] |  |
| C#CCNc1cc(-c2cn(CC(C)C)nc2-c2ccc(Cl)s2)ccn1 [Example 112] |  | 2.30^[b] |  |
| Fc1ccccc1Cn1cc(-c2ccncc2)c(-c2sccc2Cl)n1 [Example 113] |  | 1.74^[b] | logP value of the minor isomer (in parenthesis in column Isomer ratio [d]) (pH 2.7): (1.76) |
| CC(C)n1cc(-c2ccncc2)c(-c2cc(Cl)cs2)n1 [Example 114] |  | 1.6^[b] | logP value of the minor isomer (in parenthesis in column Isomer ratio [d]) (pH 2.7): (1.74) |
| COCn1cc(-c2ccnc(NC(C)C)n2)c(-c2ccc(Cl)s2)n1 [Example 115] |  | 2.39^[b] | logP value of the minor isomer (in parenthesis in column Isomer ratio [d]) (pH 2.7): (2.39) |
| CCC(CC)n1cc(-c2ccnc(NC(C)C)n2)c(-c2ccc(Cl)s2)n1 [Example 116] |  | 3.57^[b] | logP value of the minor isomer (in parenthesis in column Isomer ratio [d]) (pH 2.7): (3.37) |
| C#CCn1cc(-c2ccnc(NC(C)C)n2)c(-c2ccc(Cl)s2)n1 [Example 117] |  | 2.52^[b] | logP value of the minor isomer (in parenthesis in column Isomer ratio [d]) (pH 2.7): (3.13) |

| SMILES | log p (pH 2.3) | log p (pH 2.7) | also measured |
| --- | --- | --- | --- |
| CC(C)=CCn1cc(-c2ccnc(NC(C)C)n2)c(-c2ccc(Cl)s2)n1 [Example 118] |  | 3.44^[b] | logP value of the minor isomer (in parenthesis in column Isomer ratio [d]) (pH 2.7): (3.00) |
| CC(C)Nc1nccc(-c2cn(CCCl)nc2-c2ccc(Cl)s2)n1 [Example 119] |  | 2.63^[b] | logP value of the minor isomer (in parenthesis in column Isomer ratio [d]) (pH 2.7): (2.35) |
| CCOCCn1cc(-c2ccnc(NC(C)C)n2)c(-c2ccc(Cl)s2)n1 [Example 120] |  | 2.56^[b] | logP value of the minor isomer (in parenthesis in column Isomer ratio [d]) (pH 2.7): (2.33) |
| CC(C)Nc1nccc(-c2cn(Cc3ccccc3F)nc2-c2ccc(Cl)s2)n1 [Example 121] |  | 3.39^[b] | logP value of the minor isomer (in parenthesis in column Isomer ratio [d]) (pH 2.7): (3.02 |
| CC(C)Nc1nccc(-c2cn(CC#N)nc2-c2ccc(Cl)s2)n1 [Example 122] |  | 2.4^[b] |  |
| C=CC(C)n1cc(-c2ccnc(NC(C)C)n2)c(-c2ccc(Cl)s2)n1 (centres unmarked) [Example 123] |  | 3.02^[b] | logP value of the minor isomer (in parenthesis in column Isomer ratio [d]) (pH 2.7): (2.73) |
| CC(C)Nc1nccc(-c2cn(CC(F)(F)F)nc2-c2ccc(Cl)s2)n1 [Example 124] |  | 3.11^[b] |  |
| Cn1cc(-c2ccncc2)c(-c2cc(Cl)cs2)n1 [Example 125] |  | 1.11^[b] | logP value of the minor isomer (pH 2.7): (1.05) |
| N#CCCn1cc(-c2ccncc2)c(-c2cc(Cl)cs2)n1 [Example 126] |  | 1.16^[b] |  |
| FC(F)Cn1cc(-c2ccncc2)c(-c2sccc2Cl)n1 [Example 127] |  | 1.14^[b] | logP value of the minor isomer (pH 2.7): (1.17) |
| Clc1ccsc1-c1nn(CCc2ccccc2)cc1-c1ccncc1 [Example 128] |  | 1.88^[b] | logP value of the minor isomer (pH 2.7): (1.84) |
| COCn1cc(-c2ccncc2)c(-c2sccc2Cl)n1 [Example 129] |  | 0.95^[b] |  |
| CCC(CC)n1cc(-c2ccncc2)c(-c2sccc2Cl)n1 [Example 130] |  | 1.78^[b] | logP value of the minor isomer (pH 2.7): (1.88) |
| C#CCn1cc(-c2ccncc2)c(-c2sccc2Cl)n1 [Example 131] |  | 1.11^[b] | logP value of the minor isomer (pH 2.7): (1.10) |
| CCC(C)n1cc(-c2ccncc2)c(-c2sccc2Cl)n1 (centres unmarked) [Example 132] |  | 1.56^[b] | logP value of the minor isomer (pH 2.7): (1.67) |
| CC(C)=CCn1cc(-c2ccncc2)c(-c2sccc2Cl)n1 [Example 133] |  | 1.74^[b] |  |
| ClCCn1cc(-c2ccncc2)c(-c2sccc2Cl)n1 [Example 134] |  | 1.22^[b] | logP value of the minor isomer (pH 2.7): (1.29) |
| CCOCCn1cc(-c2ccncc2)c(-c2sccc2Cl)n1 [Example 135] |  | 1.23^[b] |  |
| C=CCn1cc(-c2ccncc2)c(-c2sccc2Cl)n1 [Example 136] |  | 1.22^[b] | logP value of the minor isomer (pH 2.7): (1.28) |
| N#CCn1cc(-c2ccncc2)c(-c2sccc2Cl)n1 [Example 137] |  | 0.93^[b] | logP value of the minor isomer (pH 2.7): (0.78 |
| FC(F)(F)Cn1cc(-c2ccncc2)c(-c2sccc2Cl)n1 [Example 138] |  | 1.39^[b] |  |
| CC(C)Nc1nccc(-c2cn(C)nc2-c2ccc(Cl)s2)n1 [Example 139] |  | 2.07^[b] | logP value of the minor isomer (pH 2.7): (1.93) |
| CC(C)Nc1nccc(-c2cn(CCC#N)nc2-c2ccc(Cl)s2)n1 [Example 140] |  | 2.15^[b] |  |
| CCn1cc(-c2ccnc(NC(C)C)n2)c(-c2ccc(Cl)s2)n1 [Example 141] |  | 2.39^[b] | logP value of the minor isomer (pH 2.7): (2.20) |
| Cn1cc(-c2ccncc2)c(-c2sccc2Cl)n1 [Example 142] |  | 0.78^[b] | logP value of the minor isomer (pH 2.7): (0.88) |
| N#CCCn1cc(-c2ccncc2)c(-c2sccc2Cl)n1 [Example 143] |  | 0.86^[b] |  |
| CC(C)n1cc(-c2ccnc(NC=O)n2)c(-c2ccc(Cl)s2)n1 [Example 144] | 3.81^[a] |  |  |

| SMILES | log p (pH 2.3) | log p (pH 2.7) | also measured |
| --- | --- | --- | --- |
| Cc1c(-c2ccncc2)c(-c2ccc(Cl)s2)nn1C [Example 147] |  | 1.29^[b] | log p (pH 7.8): 2.62^[c]; |
| CC(C)Cn1cc(-c2ccncc2)c(-c2cc(Cl)cs2)n1 [Example 152] |  | 1.87^[b] |  |
| CC(C)Nc1nccc(-c2cn(CCc3ccccc3)nc2-c2ccc(Cl)s2)n1 [Example 153] |  | 3.63^[b] |  |
| CC(C)Nc1nccc(-c2cn(C3CCCC3)nc2-c2ccc(Cl)s2)n1 [Example 154] |  | 3.61^[b] |  |
| C=CCn1cc(-c2ccnc(NC(C)C)n2)c(-c2ccc(Cl)s2)n1 [Example 155] |  | 2.68^[b] |  |
| CCn1cc(-c2ccncc2)c(-c2cc(Cl)cs2)n1 [Example 156] |  | 1.34^[b] |  |
| FC(F)Cn1cc(-c2ccncc2)c(-c2cc(Cl)cs2)n1 [Example 157] |  | 1.42^[b] |  |
| CC(C)n1cc(-c2ccncc2)c(-c2sccc2Cl)n1 [Example 158] |  | 1.38^[b] |  |
| CC(C)Cn1cc(-c2ccncc2)c(-c2sccc2Cl)n1 [Example 159] |  | 1.62^[b] |  |
| Clc1ccsc1-c1nn(C2CCCC2)cc1-c1ccncc1 [Example 160] |  | 1.76^[b] |  |
| C=CC(C)n1cc(-c2ccncc2)c(-c2sccc2Cl)n1 (centres unmarked) [Example 161] |  | 1.51^[b] |  |
| CC(C)Nc1nccc(-c2cn(CC(F)F)nc2-c2ccc(Cl)s2)n1 [Example 162] |  | 2.66^[b] |  |
| CCn1cc(-c2ccncc2)c(-c2sccc2Cl)n1 [Example 163] |  | 1.14^[b] |  |
| COCC(C)Nc1nccc(-c2cn(C(C)C)nc2-c2ccc(Cl)s2)n1 (centres unmarked) [Example 178] | 2.82^[a] |  |  |
| CCC(C)Nc1nccc(-c2cn(C(C)C)nc2-c2ccc(Cl)s2)n1 (centres unmarked) [Example 182] | 3.15^[a] |  |  |
| C=CCNc1nccc(-c2cn(C(C)C)nc2-c2ccc(Cl)s2)n1 [Example 184] | 3^[a] |  |  |
| CC(C)n1cc(-c2ccnc(N)n2)c(-c2ccc(Cl)s2)n1 [Example 185] | 2.01^[a] |  |  |
| CCC(C)n1cc(-c2ccnc(NC(C)C)n2)c(-c2ccc(Cl)s2)n1 (centres unmarked) [Example 189] | 3.25^[a] |  |  |
| CC(C)n1cc(-c2ccnc(Cl)n2)c(-c2ccc(Cl)s2)n1 [Example 192] | 4.31^[a] |  |  |
| CC(C)n1cc(-c2ccnc(NCc3ccccc3)n2)c(-c2ccc(Cl)s2)n1 [Example 198] | 3.81^[a] |  |  |
| CCC(C)n1cc(-c2ccnc(NCc3ccccc3)n2)c(-c2ccc(Cl)s2)n1 (centres unmarked) [Example 200] | 4.27^[a] |  |  |
| CCC(C)n1cc(-c2ccnc(S(C)(=O)=O)n2)c(-c2ccc(Cl)s2)n1 (centres unmarked) [Example 202] | 3.52^[a] |  |  |
| CC(C)n1cc(-c2ccnc(S(C)(=O)=O)n2)c(-c2ccc(Cl)s2)n1 [Example 203] | 3.15^[a] |  |  |
| CCC(C)n1ncc(-c2ccnc(SC)n2)c1-c1ccc(Cl)s1 (centres unmarked) [Example 209] | 4.76^[a] |  |  |
| CC(C)n1ncc(-c2ccncc2)c1-c1ccc(I)s1 [Example 215] |  | 1.78^[b] |  |
